This is an account of results in ChEMBL document CHEMBL5291721, “A preclinical secondary pharmacology resource illuminates target-adverse drug reaction associations of marketed drugs” (Nat Commun, 2023).

Assay [1] deals with T1, 5-hydroxytryptamine receptor 2C (Homo sapiens, UniProt P28335).
T1 sequence (P28335 whole entry): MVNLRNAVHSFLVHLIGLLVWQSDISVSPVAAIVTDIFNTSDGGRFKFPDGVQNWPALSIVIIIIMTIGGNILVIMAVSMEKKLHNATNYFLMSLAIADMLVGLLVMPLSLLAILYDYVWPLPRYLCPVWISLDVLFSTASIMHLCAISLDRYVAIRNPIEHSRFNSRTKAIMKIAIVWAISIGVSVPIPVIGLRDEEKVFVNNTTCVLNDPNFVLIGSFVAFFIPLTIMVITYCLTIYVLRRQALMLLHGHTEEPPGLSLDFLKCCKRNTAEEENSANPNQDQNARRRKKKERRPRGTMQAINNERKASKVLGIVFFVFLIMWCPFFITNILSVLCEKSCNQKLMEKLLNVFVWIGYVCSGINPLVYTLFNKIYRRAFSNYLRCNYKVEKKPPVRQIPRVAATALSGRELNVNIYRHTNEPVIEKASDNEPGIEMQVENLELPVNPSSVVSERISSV

Assay [2] concerns the target 3',5'-cyclic-AMP phosphodiesterase 4D (Homo sapiens, UniProt Q08499). Type of assay: functional.
For assay [3], the target named is Histamine H2 receptor (Homo sapiens, UniProt P25021). Type of assay: functional, cell-based.
Chain of Histamine H2 receptor (P25021 whole entry): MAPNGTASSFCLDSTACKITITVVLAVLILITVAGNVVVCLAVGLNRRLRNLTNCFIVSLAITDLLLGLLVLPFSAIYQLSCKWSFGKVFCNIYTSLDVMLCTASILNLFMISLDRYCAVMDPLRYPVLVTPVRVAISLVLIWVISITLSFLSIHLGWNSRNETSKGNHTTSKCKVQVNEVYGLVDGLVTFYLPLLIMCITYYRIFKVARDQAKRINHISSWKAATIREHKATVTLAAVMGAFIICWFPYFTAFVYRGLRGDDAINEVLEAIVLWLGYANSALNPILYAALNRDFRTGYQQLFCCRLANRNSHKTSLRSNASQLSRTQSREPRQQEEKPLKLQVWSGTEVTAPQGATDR
Assay [4] deals with T2, Cannabinoid receptor 1 (Homo sapiens, UniProt P21554). The format is functional, cell-based.
T2 sequence (P21554 whole entry): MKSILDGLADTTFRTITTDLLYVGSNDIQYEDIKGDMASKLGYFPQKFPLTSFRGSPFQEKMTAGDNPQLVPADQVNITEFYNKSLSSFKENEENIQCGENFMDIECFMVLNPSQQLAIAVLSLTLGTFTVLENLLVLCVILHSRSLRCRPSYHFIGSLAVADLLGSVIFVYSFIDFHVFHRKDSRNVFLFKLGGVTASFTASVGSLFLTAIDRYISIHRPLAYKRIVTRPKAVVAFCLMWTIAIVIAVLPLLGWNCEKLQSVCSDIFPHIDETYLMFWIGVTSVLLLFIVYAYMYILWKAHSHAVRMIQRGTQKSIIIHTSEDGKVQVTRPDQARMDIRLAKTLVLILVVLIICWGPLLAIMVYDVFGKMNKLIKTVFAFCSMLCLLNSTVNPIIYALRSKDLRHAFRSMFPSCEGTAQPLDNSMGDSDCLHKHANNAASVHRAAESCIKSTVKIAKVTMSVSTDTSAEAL
The target in assay [5] is T3, Adenosine receptor A1 (Homo sapiens, UniProt P30542).
T3 sequence (P30542 whole entry): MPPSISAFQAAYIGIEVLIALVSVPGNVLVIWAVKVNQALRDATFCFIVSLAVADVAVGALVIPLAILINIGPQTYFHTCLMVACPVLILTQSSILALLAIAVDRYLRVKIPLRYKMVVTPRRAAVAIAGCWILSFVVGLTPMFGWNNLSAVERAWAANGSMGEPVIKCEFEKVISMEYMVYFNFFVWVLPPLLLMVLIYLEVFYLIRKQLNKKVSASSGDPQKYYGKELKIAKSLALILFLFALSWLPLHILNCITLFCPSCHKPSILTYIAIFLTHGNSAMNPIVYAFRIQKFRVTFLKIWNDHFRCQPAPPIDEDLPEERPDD

In assay [6] the target is T2, Cannabinoid receptor 1. Type of assay: functional, cell-based. The source holds these as a separate data set.
Assay [7] deals with Melanocortin receptor 3 (Homo sapiens, UniProt P41968).
Chain of Melanocortin receptor 3 (P41968 whole entry): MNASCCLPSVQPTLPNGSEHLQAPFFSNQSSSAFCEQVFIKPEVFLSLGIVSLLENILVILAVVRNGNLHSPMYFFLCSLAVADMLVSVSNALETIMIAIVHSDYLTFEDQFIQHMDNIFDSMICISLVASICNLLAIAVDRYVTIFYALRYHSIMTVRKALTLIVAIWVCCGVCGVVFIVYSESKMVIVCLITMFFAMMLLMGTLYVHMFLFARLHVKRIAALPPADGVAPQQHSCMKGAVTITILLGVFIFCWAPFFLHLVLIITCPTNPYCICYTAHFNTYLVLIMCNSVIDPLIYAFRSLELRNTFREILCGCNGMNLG
Assay [8] addresses cGMP-inhibited 3',5'-cyclic phosphodiesterase 3A (Homo sapiens, UniProt Q14432). Type of assay: functional.
The target in assay [9] is Gamma-aminobutyric acid receptor subunit alpha-1 (Rattus norvegicus, UniProt P62813). Type of assay: functional.
Chain of Gamma-aminobutyric acid receptor subunit alpha-1 (P62813 whole entry): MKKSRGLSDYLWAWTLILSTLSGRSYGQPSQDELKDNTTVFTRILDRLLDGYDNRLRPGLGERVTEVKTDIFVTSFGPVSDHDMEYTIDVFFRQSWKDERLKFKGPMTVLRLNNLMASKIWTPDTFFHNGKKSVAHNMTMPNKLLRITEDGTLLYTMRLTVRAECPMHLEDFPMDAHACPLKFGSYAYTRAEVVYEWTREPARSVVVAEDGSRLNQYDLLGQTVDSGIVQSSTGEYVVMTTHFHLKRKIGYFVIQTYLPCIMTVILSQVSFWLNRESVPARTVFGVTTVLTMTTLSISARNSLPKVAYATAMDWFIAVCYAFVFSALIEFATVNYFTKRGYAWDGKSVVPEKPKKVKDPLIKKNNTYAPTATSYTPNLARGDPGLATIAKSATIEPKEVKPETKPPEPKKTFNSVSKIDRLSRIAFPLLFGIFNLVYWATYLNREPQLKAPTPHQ
The target of assay [10] is T4, 5-hydroxytryptamine receptor 3A (Homo sapiens, UniProt P46098).
T4 sequence (P46098 whole entry): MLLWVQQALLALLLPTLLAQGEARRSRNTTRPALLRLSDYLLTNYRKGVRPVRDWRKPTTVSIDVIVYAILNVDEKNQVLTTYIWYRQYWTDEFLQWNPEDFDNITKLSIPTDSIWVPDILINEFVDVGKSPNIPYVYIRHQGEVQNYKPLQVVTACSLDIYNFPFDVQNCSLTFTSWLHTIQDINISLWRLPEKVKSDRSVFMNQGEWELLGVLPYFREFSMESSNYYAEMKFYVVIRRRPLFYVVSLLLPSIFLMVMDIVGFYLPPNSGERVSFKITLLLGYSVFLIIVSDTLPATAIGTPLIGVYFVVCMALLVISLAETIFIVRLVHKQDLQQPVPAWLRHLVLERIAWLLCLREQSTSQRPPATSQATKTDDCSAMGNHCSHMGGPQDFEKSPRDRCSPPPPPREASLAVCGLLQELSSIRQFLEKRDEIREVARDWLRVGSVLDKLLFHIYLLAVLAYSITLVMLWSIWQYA
Type of assay: functional.

The target of assay [11] is T5, Alpha-2B adrenergic receptor (Homo sapiens, UniProt P18089).
T5 sequence (P18089 whole entry): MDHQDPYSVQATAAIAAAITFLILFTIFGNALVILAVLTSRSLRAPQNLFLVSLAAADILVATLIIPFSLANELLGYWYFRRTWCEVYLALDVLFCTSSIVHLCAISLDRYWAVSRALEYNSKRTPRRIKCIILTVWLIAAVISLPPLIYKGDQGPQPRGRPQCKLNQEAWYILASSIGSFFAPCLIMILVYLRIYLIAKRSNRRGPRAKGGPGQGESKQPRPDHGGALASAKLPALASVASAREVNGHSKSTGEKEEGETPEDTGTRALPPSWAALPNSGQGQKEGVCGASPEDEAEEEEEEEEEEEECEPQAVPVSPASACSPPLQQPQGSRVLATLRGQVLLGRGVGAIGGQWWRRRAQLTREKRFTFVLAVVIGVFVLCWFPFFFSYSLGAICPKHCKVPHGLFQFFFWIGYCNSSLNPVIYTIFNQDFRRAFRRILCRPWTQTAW

Structures are written as SMILES.
Further: assay procedure not described here.

Chain of cGMP-inhibited 3',5'-cyclic phosphodiesterase 3A (Q14432 whole entry): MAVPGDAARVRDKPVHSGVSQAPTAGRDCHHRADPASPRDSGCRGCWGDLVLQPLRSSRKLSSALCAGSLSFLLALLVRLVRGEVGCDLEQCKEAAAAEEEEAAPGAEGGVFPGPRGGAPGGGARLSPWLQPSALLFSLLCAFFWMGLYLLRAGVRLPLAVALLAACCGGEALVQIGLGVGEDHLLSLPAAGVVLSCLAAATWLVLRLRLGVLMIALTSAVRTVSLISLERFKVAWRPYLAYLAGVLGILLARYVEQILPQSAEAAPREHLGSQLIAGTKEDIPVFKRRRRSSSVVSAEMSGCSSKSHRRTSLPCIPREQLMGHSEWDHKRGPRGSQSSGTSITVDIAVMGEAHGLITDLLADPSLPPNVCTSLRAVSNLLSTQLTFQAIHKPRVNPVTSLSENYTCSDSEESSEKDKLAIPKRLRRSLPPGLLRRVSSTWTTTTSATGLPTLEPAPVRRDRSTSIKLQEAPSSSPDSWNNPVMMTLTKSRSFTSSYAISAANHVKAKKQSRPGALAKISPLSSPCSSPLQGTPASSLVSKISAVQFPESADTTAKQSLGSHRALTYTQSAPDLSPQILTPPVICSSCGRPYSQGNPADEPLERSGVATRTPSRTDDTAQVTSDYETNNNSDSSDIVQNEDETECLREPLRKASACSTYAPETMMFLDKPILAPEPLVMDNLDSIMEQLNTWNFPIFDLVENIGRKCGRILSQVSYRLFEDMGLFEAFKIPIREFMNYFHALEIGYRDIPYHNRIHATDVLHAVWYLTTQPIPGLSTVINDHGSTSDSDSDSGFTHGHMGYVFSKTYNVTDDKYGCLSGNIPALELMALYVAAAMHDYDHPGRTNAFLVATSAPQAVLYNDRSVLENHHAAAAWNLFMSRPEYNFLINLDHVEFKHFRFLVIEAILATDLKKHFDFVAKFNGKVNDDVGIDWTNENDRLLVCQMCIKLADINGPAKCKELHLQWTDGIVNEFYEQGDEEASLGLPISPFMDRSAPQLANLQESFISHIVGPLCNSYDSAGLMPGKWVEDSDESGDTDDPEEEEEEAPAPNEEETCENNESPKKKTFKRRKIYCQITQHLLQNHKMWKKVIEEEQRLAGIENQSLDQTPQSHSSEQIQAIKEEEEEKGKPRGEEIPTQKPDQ
Chain of 3',5'-cyclic-AMP phosphodiesterase 4D (Q08499 whole entry): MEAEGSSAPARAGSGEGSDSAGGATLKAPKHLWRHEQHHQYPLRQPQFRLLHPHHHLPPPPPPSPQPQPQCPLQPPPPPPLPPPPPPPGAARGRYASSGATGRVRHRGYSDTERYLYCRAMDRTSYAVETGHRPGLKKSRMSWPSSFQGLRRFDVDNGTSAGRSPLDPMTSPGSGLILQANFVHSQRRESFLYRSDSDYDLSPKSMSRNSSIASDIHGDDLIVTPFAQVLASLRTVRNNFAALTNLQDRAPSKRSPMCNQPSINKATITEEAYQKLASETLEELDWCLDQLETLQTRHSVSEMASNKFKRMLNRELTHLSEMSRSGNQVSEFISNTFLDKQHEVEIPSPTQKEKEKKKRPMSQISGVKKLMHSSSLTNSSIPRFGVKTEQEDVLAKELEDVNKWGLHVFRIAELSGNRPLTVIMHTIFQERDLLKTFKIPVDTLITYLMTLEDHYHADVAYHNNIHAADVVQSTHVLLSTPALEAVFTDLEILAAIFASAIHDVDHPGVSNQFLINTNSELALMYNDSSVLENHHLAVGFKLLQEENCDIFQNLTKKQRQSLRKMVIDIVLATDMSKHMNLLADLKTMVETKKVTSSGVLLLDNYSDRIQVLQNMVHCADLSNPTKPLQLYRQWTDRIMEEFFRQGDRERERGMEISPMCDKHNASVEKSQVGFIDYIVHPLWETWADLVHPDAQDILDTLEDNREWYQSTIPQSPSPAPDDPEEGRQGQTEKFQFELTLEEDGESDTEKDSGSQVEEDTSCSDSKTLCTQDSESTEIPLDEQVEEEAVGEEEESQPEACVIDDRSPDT

For `C[N+](C)(C)CCOP(=O)([O-])OC[C@H](O)CO`, the AC50 in assay [1], in assay [2], in assay [3], in assay [4], in assay [5] and in assay [6] was more than 30 µM in each case. Also, the AC50 in assay [7], in assay [8], in assay [9] and in assay [10] was more than 30 µM each time.
`CN(C)C/C=C/C(=O)Nc1cc2c(Nc3ccc(F)c(Cl)c3)ncnc2cc1O[C@H]1CCOC1` [AFATINIB]: the concentration at half-maximal activity (AC50) was more than 30 µM in assay [1]; 0.87 µM in assay [11]; more than 30 µM in assay [2]; more than 30 µM in [3]; more than 30 µM in assay [4]; more than 30 µM in assay [5]. Further, the AC50 in assay [6] was more than 30 µM; in assay [7], 28 µM; in assay [8], more than 30 µM; in assay [9], more than 30 µM; in [10] it was more than 30 µM.
Take `CCC1(c2ccc(N)cc2)CCC(=O)NC1=O` (configuration not stated) [AMINOGLUTETHIMIDE]: the half-maximal activity concentration (AC50) in assay [1] was more than 30 µM; in assay [2], 9.5 µM; in assay [3], more than 30 µM; in assay [4], more than 30 µM; in assay [5], more than 30 µM; in assay [6], more than 30 µM. Besides, the AC50 was more than 30 µM in assay [7], 10 µM in [8], more than 30 µM in [9] and more than 30 µM in assay [10].
With `CC1=C(C(=O)OC(C)C)C(c2cccc([N+](=O)[O-])c2)C(C(=O)OC2CN(C(c3ccccc3)c3ccccc3)C2)=C(N)N1` (configuration not stated) [AZELNIDIPINE], the AC50 was more than 30 µM in [1]; more than 30 µM in assay [11]; 6.6 µM in [2]; more than 30 µM in assay [3]; more than 30 µM in assay [4]; more than 30 µM in [5]. The AC50 in [6], in [7], in assay [8], in [9] and in assay [10] was more than 30 µM each time.
With `CC(Cc1cccc(C(F)(F)F)c1)NCCOC(=O)c1ccccc1` (configuration not stated) [BENFLUOREX], the AC50 in assay [1] is 3.5 µM; in assay [3], more than 30 µM; in assay [4], more than 30 µM; in assay [5], more than 30 µM; in [7], more than 30 µM.
For `NC[C@H]1CC[C@H](C(=O)Oc2ccc(CCC(=O)O)cc2)CC1` [CETRAXATE], the AC50 in assay [1], in assay [2], in assay [3], in [4], in assay [6] and in assay [8] was more than 30 µM each time. The AC50 in assay [9] and in assay [10] was more than 30 µM each time.
With `N#Cc1ccc(Oc2ccc3c(c2)COB3O)cc1` [CRISABOROLE], the figures for the AC50 in assay [2] and in [8] were 0.8 µM and more than 30 µM, respectively.
`CN[C@]1(c2ccccc2Cl)CCCCC1=O` [ESKETAMINE]: the AC50 in [1], in [2], in [3], in assay [5], in assay [7] and in assay [8] was more than 30 µM throughout. Besides, the AC50 in assay [9] and in assay [10] was more than 30 µM throughout.
On to `CCOC(=O)C1=C(C)NC(C)=C(C(=O)OCC)C1c1ccccc1/C=C/C(=O)OC(C)(C)C` [LACIDIPINE], for which the AC50 in assay [1] was more than 30 µM; in [2], 12 µM; in [3] it was more than 30 µM; in assay [4] it was more than 30 µM; in [5] it was more than 30 µM; in [6], more than 30 µM. Further, the AC50 in assay [7], in assay [8], in assay [9] and in [10] was more than 30 µM throughout.
Take `COC(=O)C1=C(C)NC(C)=C(C(=O)OCCN2CCN(C(c3ccccc3)c3ccccc3)CC2)C1c1cccc([N+](=O)[O-])c1` (configuration not stated) [MANIDIPINE 6300]: the AC50 in [1], in assay [11], in assay [2], in assay [3], in [4] and in assay [5] was more than 30 µM throughout. The AC50 is 26 µM in assay [6]; more than 30 µM in assay [7]; more than 30 µM in assay [8]; more than 30 µM in [9]; more than 30 µM in assay [10].
For the compound `OC[C@H]1O[C@@H](n2cnc3c2NC=NC[C@H]3O)C[C@@H]1O` [PENTOSTATIN], the AC50 in assay [1] is more than 10 µM; in assay [11] it was more than 30 µM; in [2], more than 30 µM; in assay [3] it was more than 30 µM; in assay [4], more than 30 µM; in assay [5], 0.41 µM. Moreover, the AC50 in assay [6], in assay [7], in assay [8], in [9] and in assay [10] was more than 30 µM each time.
On to `Cc1cccc(C)c1NC(=O)CC12CCCN1CCC2` [PILSICAINIDE], for which the AC50 in assay [1], in assay [11], in [2], in [3], in assay [4] and in assay [5] was more than 30 µM throughout. For the same compound, the AC50 in [6], in assay [7], in assay [8], in assay [9] and in [10] was more than 30 µM in each case.
As to `CC(C)c1cccc(C(C)C)c1O` [PROPOFOL], the AC50 in [1], in assay [2], in assay [4], in assay [5], in [6] and in assay [7] was more than 30 µM each time. Further, the AC50 in assay [8] and in assay [10] was more than 30 µM each time.
With `O=C1OC(OC(=O)c2cccnc2Nc2cccc(C(F)(F)F)c2)c2ccccc21` (configuration not stated) [TALNIFLUMATE], the AC50 in assay [1] is more than 30 µM; in assay [11] it was more than 30 µM; in [2] it was 5.2 µM; in assay [3] it was more than 30 µM; in assay [4] it was more than 30 µM; in [5] it was more than 30 µM. The AC50 in [6], in assay [7], in [8], in assay [9] and in [10] was more than 30 µM each time.
Regarding `O=S1(=O)CCN(CN2CCS(=O)(=O)NC2)CN1` [TAUROLIDINE], the concentration at half-maximal activity (AC50) in [1] was more than 30 µM; in assay [11], 20 µM; in [2], more than 30 µM; in assay [3] it was more than 30 µM; in [4], more than 30 µM; in [6], more than 30 µM. The AC50 in [7] is more than 30 µM; in assay [8], more than 30 µM; in assay [9], more than 10 µM; in assay [10], more than 30 µM.

The term AC50 denotes the concentration at which the activity in the assay is half-maximal. The low end stands for greater potency, the high end for weaker potency.
